Biological target: T1, hVR1 (Homo sapiens, UniProt Q8NER1)
T1 construct: expressed in transfected cells; host or cells: HEK293
Assay: Human VR1 (hVR1) Functional Assay (FLIPR intracellular calcium, capsaicin challenge)
Format: cell-based
Conditions: capsaicin 0.030 μM, HEK293 cells expressing hVR1; for inhibition at 1 µM: test concentration 1 μM

T1 sequence (Q8NER1 whole entry): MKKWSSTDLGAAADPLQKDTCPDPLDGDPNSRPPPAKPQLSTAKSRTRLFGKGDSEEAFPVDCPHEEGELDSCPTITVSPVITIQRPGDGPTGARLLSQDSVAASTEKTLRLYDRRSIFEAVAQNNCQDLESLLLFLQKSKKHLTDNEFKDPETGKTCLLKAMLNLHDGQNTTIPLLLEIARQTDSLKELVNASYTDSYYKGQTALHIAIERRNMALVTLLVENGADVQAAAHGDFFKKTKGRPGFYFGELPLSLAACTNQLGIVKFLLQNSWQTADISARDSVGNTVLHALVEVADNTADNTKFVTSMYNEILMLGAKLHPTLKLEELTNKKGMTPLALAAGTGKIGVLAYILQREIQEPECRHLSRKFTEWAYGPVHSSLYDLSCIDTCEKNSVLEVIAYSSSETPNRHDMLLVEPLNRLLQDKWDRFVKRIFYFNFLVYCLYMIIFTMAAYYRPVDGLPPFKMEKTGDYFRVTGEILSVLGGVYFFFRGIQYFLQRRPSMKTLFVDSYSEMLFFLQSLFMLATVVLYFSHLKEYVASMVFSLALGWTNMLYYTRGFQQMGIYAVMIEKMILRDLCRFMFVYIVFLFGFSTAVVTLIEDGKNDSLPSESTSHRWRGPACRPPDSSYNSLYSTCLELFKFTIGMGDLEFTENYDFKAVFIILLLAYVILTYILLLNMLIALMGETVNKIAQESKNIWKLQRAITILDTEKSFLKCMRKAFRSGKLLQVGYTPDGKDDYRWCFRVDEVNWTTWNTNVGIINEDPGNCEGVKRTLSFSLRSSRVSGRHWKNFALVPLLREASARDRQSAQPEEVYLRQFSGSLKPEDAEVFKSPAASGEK

Row | inhibition at 1 µM | IC50 | inhibition at 5 µM (test concentration 5 μM (footnote 1)) | SMILES
1 | 48% |  |  | CS(=O)(=O)Nc1ccccc1-c1ccc2[nH]c(/C=C/c3cccc(C(F)(F)F)c3)nc2c1 [Cpd 113, (E)-N-(2-{2-[2-(3-trifluoromethyl-phenyl)-vinyl]-1H-benzimidazol-5-yl}-phenyl)-methanesulfonamide]
2 | 16% |  |  | CS(=O)(=O)c1ccc(/C=C/c2nc3cc(-c4ccccc4S(N)(=O)=O)ccc3[nH]2)cc1 [Cpd 85, (E)-2-{2-[2-(4-methanesulfonyl-phenyl)-vinyl]-1H-benzimidazol-5-yl}-benzenesulfonamide]
3 | 12% |  |  | CC(C)(C)c1ccc(/C=C/c2nc3cc(-c4cccc(C(N)=O)c4)ccc3[nH]2)cc1 [Cpd 6, (E)-3-{2-[2-(4-tert-butyl-phenyl)-vinyl]-1H-benzimidazol-5-yl}-benzamide]
4 | 94% | 280 nM |  | CC(C)(C)OC(=O)Nc1ccccc1-c1ccc2[nH]c(/C=C/c3ccc(C(C)(C)C)cc3)nc2c1 [Cpd 10, (E)-(2-{2-[2-(4-tert-butyl-phenyl)-vinyl]-1H-benzimidazol-5-yl}-phenyl)-carbamic acid tert-butyl ester]
5 | 98% | 33 nM |  | CNS(=O)(=O)c1ccccc1-c1ccc2[nH]c(/C=C/c3cc(F)c(F)cc3F)nc2c1 [Cpd 324, (E)-N-methyl-2-{2-[2-(2,4,5-trifluoro-phenyl)-vinyl]-1H-benzimidazol-5-yl}-benzenesulfonamide]
6 | 89% | 270 nM |  | NC(=O)c1ccccc1-c1ccc2[nH]c(/C=C/c3ccc(SC(F)(F)F)cc3)nc2c1 [Cpd 38, (E)-2-{2-[2-(4-trifluoromethylsulfanyl-phenyl)-vinyl]-1H-benzimidazol-5-yl}-benzamide]
7 | 97% | 21 nM |  | NS(=O)(=O)c1ccccc1-c1ccc2[nH]c(CCc3cc(F)c(F)cc3F)nc2c1 [Cpd 385, 2-{2-[2-(2,4,5-trifluoro-phenyl)-ethyl]-1H-benzimidazol-5-yl}-benzenesulfonamide]
8 | 32% |  |  | NC(=O)c1ccccc1-c1ccc2[nH]c(/C=C/c3ccc(OC(F)(F)F)cc3)nc2c1 [Cpd 19, (E)-2-{2-[2-(4-trifluoromethoxy-phenyl)-vinyl]-1H-benzimidazol-5-yl}-benzamide]
9 | 43% |  |  | CS(=O)(=O)Nc1ccccc1-c1ccc2[nH]c(/C=C/c3ccc(F)c(Br)c3)nc2c1 [Cpd 409, (E)-N-(2-{2-[2-(3-bromo-4-fluoro-phenyl)-vinyl]-1H-benzimidazol-5-yl}-phenyl)-methanesulfonamide]
10 | 99% | 22 nM |  | NS(=O)(=O)c1ccccc1-c1ccc2[nH]c(/C=C/c3ccccc3)nc2c1 [Cpd 426, (E)-2-(2-styryl-1H-benzimidazol-5-yl)-benzenesulfonamide]
11 | 90% | 280 nM |  | O=S(=O)(c1ccc(/C=C/c2nc3cc(-c4ccccc4O)ccc3[nH]2)cc1)C(F)(F)F [Cpd 41, (E)-2-{2-[2-(4-trifluoromethanesulfonyl-phenyl)-vinyl]-1H-benzimidazol-5-yl}-phenol]
12 | 98% | 46 nM |  | NS(=O)(=O)c1ccccc1-c1ccc2[nH]c(/C=C/c3cc(F)ccc3F)nc2c1 [Cpd 360, (E)-2-{2-[2-(2,5-difluoro-phenyl)-vinyl]-1H-benzimidazol-5-yl}-benzenesulfonamide]
13 | 100% | 28 nM |  | NS(=O)(=O)c1ccccc1-c1ccc2[nH]c(/C=C/c3cccc(Br)c3)nc2c1 [Cpd 376, (E)-2-{2-[2-(3-bromo-phenyl)-vinyl]-1H-benzimidazol-5-yl}-benzenesulfonamide]
14 | 27% |  |  | CNS(=O)(=O)c1ccccc1-c1ccc2[nH]c(/C=C/c3ccc(C(=O)NC(C)C)cc3)nc2c1 [Cpd 450, (E)-N-isopropyl-4-{2-[5-(2-methylsulfamoyl-phenyl)-1H-benzimidazol-2-yl]-vinyl}-benzamide]
15 | 5% |  |  | CNS(=O)(=O)c1ccccc1-c1ccc2[nH]c(/C=C/c3ccc(NC(C)=O)cc3)nc2c1 [Cpd 452, (E)-N-(4-{2-[5-(2-methylsulfamoyl-phenyl)-1H-benzimidazol-2-yl]-vinyl}-phenyl)-acetamide]
16 | 85% | 131 nM |  | CNS(=O)(=O)c1ccccc1-c1ccc2[nH]c(/C=C/c3ccc(F)cc3C(F)(F)F)nc2c1 [Cpd 330, (E)-2-{2-[2-(4-fluoro-2-trifluoromethyl-phenyl)-vinyl]-1H-benzimidazol-5-yl}-N-methyl-benzenesulfonamide]
17 | 97% | 260 nM |  | NC(=O)c1ccccc1-c1cc2nc(/C=C/c3ccc(C(F)(F)F)cc3)[nH]c2cc1F [Cpd 63, (E)-2-{6-fluoro-2-[2-(4-trifluoromethyl-phenyl)-vinyl]-1H-benzimidazol-5-yl}-benzamide]
18 | 14% |  |  | CC(C)(C)c1ccc(/C=C/c2nc3cc(-c4ccccc4NS(C)(=O)=O)c(C(F)(F)F)cc3[nH]2)cc1 [Cpd 55, (E)-N-(2-{2-[2-(4-tert-butyl-phenyl)-vinyl]-6-trifluoromethyl-1H-benzimidazol-5-yl}-phenyl)-methanesulfonamide]
19 | 96% | 2 nM |  | CC(C)(O)c1ccccc1-c1ccc2[nH]c(C#Cc3ccccc3)nc2c1 [Cpd 489, 2-[2-(2-phenylethynyl-1H-benzimidazol-5-yl)-phenyl]-propan-2-ol]
20 |  |  | 75% | CC(C)(C)c1ccc(CCc2nc3cc(-c4ccc(O)cc4)ccc3[nH]2)cc1 [Cpd 34, 4-{2-[2-(4-tert-butyl-phenyl)-ethyl]-1H-benzimidazol-5-yl}-phenol]
21 | 96% | 104 nM |  | CNS(=O)(=O)c1ccccc1-c1ccc2[nH]c(/C=C/c3cccc(Br)c3)nc2c1 [Cpd 338, (E)-2-{2-[2-(3-bromo-phenyl)-vinyl]-1H-benzimidazol-5-yl}-N-methyl-benzenesulfonamide]
22 | 8% |  |  | CC(=O)Nc1ccccc1-c1ccc2[nH]c(/C=C/c3ccc(F)c(F)c3)nc2c1 [Cpd 24, (E)-N-(2-{2-[2-(3,4-difluoro-phenyl)-vinyl]-1H-benzimidazol-5-yl}-phenyl)-acetamide]
23 | 100% | 18 nM |  | CNS(=O)(=O)c1ccccc1-c1ccc2[nH]c(/C=C/c3ccc(F)c(Cl)c3)nc2c1 [Cpd 321, (E)-2-{2-[2-(3-chloro-4-fluoro-phenyl)-vinyl]-1H-benzimidazol-5-yl}-N-methyl-benzenesulfonamide]
24 | 99% | 40 nM |  | NS(=O)(=O)c1ccccc1-c1ccc2[nH]c(/C=C/c3cc(Br)ccc3F)nc2c1 [Cpd 379, (E)-2-{2-[2-(5-bromo-2-fluoro-phenyl)-vinyl]-1H-benzimidazol-5-yl}-benzenesulfonamide]
25 | 2% |  |  | CCOc1cccc(/C=C/c2nc3cc(-c4ccccc4S(N)(=O)=O)ccc3[nH]2)c1 [Cpd 425, (E)-2-{2-[2-(3-ethoxy-phenyl)-vinyl]-1H-benzimidazol-5-yl}-benzenesulfonamide]
26 | 99% | 11 nM |  | NS(=O)(=O)c1ccccc1-c1ccc2[nH]c(/C=C/c3ccc(C(F)(F)F)cc3F)nc2c1 [Cpd 424, (E)-2-{2-[2-(2-fluoro-4-trifluoromethyl-phenyl)-vinyl]-1H-benzimidazol-5-yl}-benzenesulfonamide]
